Measurements published in PubChem BioAssay AID180 (DTP/NCI, 2004).
Where “and” joins values, the source holds several entries; their conditions need not be identical. Identical values can stand only once.

System: BDF1 mice, Adenocarcinoma 755 s.c., tumor weight T/C
Assay: NCI In Vivo Anticancer Drug Screen. Data for tumor model Adenocarcinoma 755 (subcutaneous) in B6D2F1 (BDF1) mice
Details: endpoint: mean tumor weight, higher = larger tumour
Procedure, shortened: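 Transplantable tumor implanted; mice dosed with compound or vehicle; survival or tumor size recorded; ratio of treated to vehicle control reported.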

[1] = dose: 40.0 mg/kg/injection, schedule: Q01DX011 (sc), vehicle: steriod suspending solution
[2] = dose: 15.0 mg/kg/injection, schedule: Q01DX011 (ip), vehicle: carboxymethylcellulose (CMC)
[3] = dose: 62.0 mg/kg/injection, schedule: Q01DX011 (ip), vehicle: methylcellulose (MC)
[4] = dose: 125.0 mg/kg/injection, schedule: Q01DX011 (ip), vehicle: methylcellulose (MC)
[5] = dose: 250.0 mg/kg/injection, schedule: Q01DX011 (ip), vehicle: methylcellulose (MC)
[6] = dose: 12.0 mg/kg/injection, schedule: Q01DX011 (ip), vehicle: carboxymethylcellulose (CMC)
[7] = dose: 21.0 mg/kg/injection, schedule: Q01DX011 (ip), vehicle: carboxymethylcellulose (CMC)
[8] = dose: 25.0 mg/kg/injection, schedule: Q01DX011 (ip), vehicle: methylcellulose (MC)
[9] = dose: 30.0 mg/kg/injection, schedule: Q01DX011 (ip), vehicle: carboxymethylcellulose (CMC)
[10] = dose: 60.0 mg/kg/injection, schedule: Q01DX011 (ip), vehicle: carboxymethylcellulose (CMC)

## CC/C(=C(/CC)c1ccc(O)cc1)c1ccc(O)cc1
[1]
  T/C: 114 % of control
dose: 41.2 mg/kg/injection, schedule: Q01DX011 (sc), vehicle: steriod suspending solution
  T/C: 53 % of control
dose: 62.5 mg/kg/injection, schedule: Q01DX011 (sc), vehicle: steriod suspending solution
  T/C: 41 % of control
dose: 68.66 mg/kg/injection, schedule: Q01DX011 (sc), vehicle: steriod suspending solution
  T/C: 45 % of control
dose: 80.0 mg/kg/injection, schedule: Q01DX011 (sc), vehicle: steriod suspending solution
  T/C: 178 % of control
dose: 103.0 mg/kg/injection, schedule: Q01DX011 (sc), vehicle: steriod suspending solution
  T/C: 38 % of control and 44 % of control and 50 % of control
dose: 125.0 mg/kg/injection, schedule: Q01DX011 (sc), vehicle: steriod suspending solution
  T/C: 33 % of control
dose: 160.0 mg/kg/injection, schedule: Q01DX011 (sc), vehicle: steriod suspending solution
  T/C: 111 % of control
dose: 250.0 mg/kg/injection, schedule: Q01DX011 (sc), vehicle: steriod suspending solution
  T/C: 48 % of control
dose: 320.0 mg/kg/injection, schedule: Q01DX011 (sc), vehicle: steriod suspending solution
  T/C: 98 % of control

## Nc1ncnc2c1ncn2C1CCCO1 (stereo not given)
dose: 18.7 mg/kg/injection, schedule: Q01DX011 (ip), vehicle: saline
  T/C: 111 % of control
dose: 37.5 mg/kg/injection, schedule: Q01DX011 (ip), vehicle: saline
  T/C: 120 % of control
dose: 75.0 mg/kg/injection, schedule: Q01DX011 (ip), vehicle: saline
  T/C: 119 % of control
dose: 150.0 mg/kg/injection, schedule: Q01DX011 (ip), vehicle: saline
  T/C: 52 % of control
dose: 300.0 mg/kg/injection, schedule: Q01DX011 (ip), vehicle: saline
  T/C: 23 % of control

## CC1CC2(C)C(=CC1=O)CCC1C3CCC(C)(O)C3(C)CC(O)C12F (stereo not given)
dose: 200.0 mg/kg/injection, schedule: Q01DX011 (sc), vehicle: steriod suspending solution
  T/C: 106 % of control
dose: 400.0 mg/kg/injection, schedule: Q01DX011 (sc), vehicle: steriod suspending solution
  T/C: 92 % of control

## C[C@]12CC[C@H](O)C[C@@H]1CC[C@@H]1[C@@H]2C(=O)C[C@]2(C)C3=CC(=O)O[C@H]3C[C@@H]12
dose: 5.0 mg/kg/injection, schedule: Q01DX011 (sc), vehicle: steriod suspending solution
  T/C: 73 % of control
dose: 10.0 mg/kg/injection, schedule: Q01DX011 (sc), vehicle: steriod suspending solution
  T/C: 69 % of control
dose: 20.0 mg/kg/injection, schedule: Q01DX011 (sc), vehicle: steriod suspending solution
  T/C: 74 % of control
[1]
  T/C: 77 % of control

## CC(=O)OCC1OC(n2cnc3c(=S)nc[nH]c32)C(OC(C)=O)C1OC(C)=O (stereo not given)
dose: 0.2 mg/kg/injection, schedule: Q01DX011 (ip), vehicle: carboxymethylcellulose (CMC)
  T/C: 84 % of control
dose: 0.4 mg/kg/injection, schedule: Q01DX011 (ip), vehicle: carboxymethylcellulose (CMC)
  T/C: 93 % of control
dose: 0.9 mg/kg/injection, schedule: Q01DX011 (ip), vehicle: carboxymethylcellulose (CMC)
  T/C: 61 % of control
dose: 1.8 mg/kg/injection, schedule: Q01DX011 (ip), vehicle: carboxymethylcellulose (CMC)
  T/C: 14 % of control and 31 % of control
dose: 3.7 mg/kg/injection, schedule: Q01DX011 (ip), vehicle: carboxymethylcellulose (CMC)
  T/C: 6 % of control
dose: 7.5 mg/kg/injection, schedule: Q01DX011 (ip), vehicle: carboxymethylcellulose (CMC)
  T/C: 3 % of control
[2]
  T/C: 2 % of control

## CCCCNc1nc(N)nc2c1nnn2CCCC
[3]
  T/C: 54 % of control
[4]
  T/C: 78 % of control
[5]
  T/C: 45 % of control

## OC1CC([CH2][Hg][Cl])OC([CH2][Hg][Cl])C1 (stereo not given)
dose: 6.0 mg/kg/injection, schedule: Q01DX011 (ip), vehicle: carboxymethylcellulose (CMC)
  T/C: 95 % of control
[6]
  T/C: 109 % of control
dose: 25.0 mg/kg/injection, schedule: Q01DX011 (ip), vehicle: carboxymethylcellulose (CMC)
  T/C: 28 % of control and 36 % of control
dose: 50.0 mg/kg/injection, schedule: Q01DX011 (ip), vehicle: carboxymethylcellulose (CMC)
  T/C: 92 % of control

## Cc1cnc(SCc2ccc(Cl)cc2Cl)[nH]c1=O
dose: 31.0 mg/kg/injection, schedule: Q01DX011 (ip), vehicle: methylcellulose (MC)
  T/C: 110 % of control
[3]
  T/C: 113 % of control
[4]
  T/C: 82 % of control
[5]
  T/C: 99 % of control

## Nc1n[nH]c(N)n1
dose: 300.0 mg/kg/injection, schedule: Q01DX011 (ip), vehicle: methylcellulose (MC)
  T/C: 55 % of control
dose: 400.0 mg/kg/injection, schedule: Q01DX011 (ip), vehicle: methylcellulose (MC)
  T/C: 58 % of control
dose: 500.0 mg/kg/injection, schedule: Q01DX011 (ip), vehicle: methylcellulose (MC)
  T/C: 44 % of control

## CCCCSc1ncnc2c1ncn2C1CCCCO1 (stereo not given)
dose: 9.2 mg/kg/injection, schedule: Q01DX011 (ip), vehicle: carboxymethylcellulose (CMC)
  T/C: 78 % of control
dose: 14.0 mg/kg/injection, schedule: Q01DX011 (ip), vehicle: carboxymethylcellulose (CMC)
  T/C: 58 % of control
[7]
  T/C: 35 % of control
dose: 31.0 mg/kg/injection, schedule: Q01DX011 (ip), vehicle: carboxymethylcellulose (CMC)
  T/C: 17 % of control
dose: 47.0 mg/kg/injection, schedule: Q01DX011 (ip), vehicle: carboxymethylcellulose (CMC)
  T/C: 21 % of control
dose: 63.0 mg/kg/injection, schedule: Q01DX011 (ip), vehicle: carboxymethylcellulose (CMC)
  T/C: 11 % of control
dose: 94.0 mg/kg/injection, schedule: Q01DX011 (ip), vehicle: carboxymethylcellulose (CMC)
  T/C: 8 % of control
dose: 125.0 mg/kg/injection, schedule: Q01DX011 (ip), vehicle: carboxymethylcellulose (CMC)
  T/C: 9 % of control
dose: 175.0 mg/kg/injection, schedule: Q01DX011 (ip), vehicle: carboxymethylcellulose (CMC)
  T/C: 12 % of control
dose: 188.0 mg/kg/injection, schedule: Q01DX011 (ip), vehicle: carboxymethylcellulose (CMC)
  T/C: 2 % of control
dose: 262.5 mg/kg/injection, schedule: Q01DX011 (ip), vehicle: carboxymethylcellulose (CMC)
  T/C: 14 % of control

## Nc1ccc2cc3ccccc3cc2c1
dose: 10.0 mg/kg/injection, schedule: Q01DX011 (ip), vehicle: saline
  T/C: 80 % of control
dose: 10.5 mg/kg/injection, schedule: Q01DX011 (ip), vehicle: carboxymethylcellulose (CMC)
  T/C: 62 % of control
[7]
  T/C: 40 % of control
dose: 21.0 mg/kg/injection, schedule: Q01DX011 (ip), vehicle: saline
  T/C: 41 % of control
dose: 42.0 mg/kg/injection, schedule: Q01DX011 (ip), vehicle: saline
  T/C: 37 % of control
dose: 84.0 mg/kg/injection, schedule: Q01DX011 (ip), vehicle: saline
  T/C: 29 % of control

## OCCn1cnc2c(SCc3ccccc3Cl)ncnc21
[2]
  T/C: 77 % of control
[8]
  T/C: 97 % of control
[9]
  T/C: 49 % of control
[10]
  T/C: 22 % of control
dose: 150.0 mg/kg/injection, schedule: Q01DX011 (ip), vehicle: methylcellulose (MC)
  T/C: 5 % of control

## CNC(=O)NO
dose: 50.0 mg/kg/injection, schedule: Q01DX011 (ip), vehicle: water
  T/C: 65 % of control
dose: 100.0 mg/kg/injection, schedule: Q01DX011 (ip), vehicle: water
  T/C: 43 % of control

## CC(C)C(Nc1ncnc2nc[nH]c12)C(=O)O (stereo not given)
dose: 12.0 mg/kg/injection, schedule: Q01DX011 (ip), vehicle: methylcellulose (MC)
  T/C: 180 % of control
[8]
  T/C: 230 % of control
dose: 50.0 mg/kg/injection, schedule: Q01DX011 (ip), vehicle: methylcellulose (MC)
  T/C: 239 % of control
dose: 100.0 mg/kg/injection, schedule: Q01DX011 (ip), vehicle: methylcellulose (MC)
  T/C: 192 % of control

## Clc1ccc(N2CCN(CCCN3CCN(c4cccc(Cl)c4)CC3)CC2)cc1
dose: 5.0 mg/kg/injection, schedule: Q01DX011 (ip), vehicle: methylcellulose (MC)
  T/C: 71 % of control
dose: 8.0 mg/kg/injection, schedule: Q01DX011 (ip), vehicle: carboxymethylcellulose (CMC)
  T/C: 83 % of control
dose: 10.0 mg/kg/injection, schedule: Q01DX011 (ip), vehicle: methylcellulose (MC)
  T/C: 62 % of control and 72 % of control
[6]
  T/C: 103 % of control
dose: 18.0 mg/kg/injection, schedule: Q01DX011 (ip), vehicle: carboxymethylcellulose (CMC)
  T/C: 40 % of control
dose: 20.0 mg/kg/injection, schedule: Q01DX011 (ip), vehicle: methylcellulose (MC)
  T/C: 65 % of control
dose: 27.0 mg/kg/injection, schedule: Q01DX011 (ip), vehicle: carboxymethylcellulose (CMC)
  T/C: 46 % of control
[9]
  T/C: 47 % of control
dose: 40.0 mg/kg/injection, schedule: Q01DX011 (ip), vehicle: methylcellulose (MC)
  T/C: 25 % of control
[10]
  T/C: 26 % of control
